Results from patent US20220305001A1, “METHODS OF TREATING ACUTE MYELOID LEUKEMIA WITH FARNESYLTRANSFERASE INHIBITORS” (Kura Oncology, Inc., priority 2019, published 2022).

How the values were obtained:
AML [1] = assay: Tipifarnib treatment of previously untreated elderly or unfit AML patients, survival analysed by mRNA expression of FLT3LG/CXCR4; assay type: in vivo, human
Experimental: (§1) Previous clinical studies with tipifarnib were performed in newly diagnosed AML in elderly patients with poor risk AML or relapsed and refractory AML. In these studies, patient selection was not based on genetic markers. Anecdotal evidence of tipifarnib single agent activity was reported.

AML [2] = assay: Tipifarnib treatment of relapsed or refractory AML patients, survival analysed by mRNA expression of FLT3LG/CXCR4; assay type: in vivo, human
Experimental: as §1

[3] = highest FLT3LG expression tertile
[4] = second FLT3LG expression tertile
[5] = third tertile (lowest level of FLT3LG expression)
[6] = first three quartiles of FLT3LG expression
[7] = highest FLT3LG tertile and highest CXCR4 tertile (N=10)
[8] = highest quintile of FLT3LG expression
[9] = rest of patients with either lower FLT3LG or lower CXCR4 expression (N=47)

Cn1cncc1[C@@](N)(c1ccc(Cl)cc1)c1ccc2c(c1)c(-c1cccc(Cl)c1)cc(=O)n2C [tipifarnib]
median overall survival (mOS) (AML [1]; [3]): 548 days
median progression free survival (mPFS) (AML [1]; [3]): 247 days
median overall survival (mOS) (AML [1]; [4]): 153 days
median progression free survival (mPFS) (AML [1]; [4]): 64 days
median overall survival (mOS) (AML [1]; [5]): 76 days
median progression free survival (mPFS) (AML [1]; [5]): 35 days
median overall survival (mOS) (AML [2]; [6]): 54 to 83 days
median progression free survival (mPFS) (AML [2]; [6]): 28 to 29 days
median overall survival (mOS) (AML [2]; [7]): 234 days
median progression free survival (mPFS) (AML [2]; [7]): 148 days
median overall survival (mOS) (AML [2]; [8]): 234 days
median progression free survival (mPFS) (AML [2]; [8]): 119 days
median overall survival (mOS) (AML [2]; [9]): 84 days
median progression free survival (mPFS) (AML [2]; [9]): 29 days
